Measured values reported in ChEMBL document CHEMBL1158895, “Tartrolone C: a novel insecticidal macrodiolide produced by Streptomyces sp. CP1130” (2003).

Tests used:
Spodoptera exigua = assay: Antilepidopteran activity against beet armyworm eggs assessed as minimum emergent larvicide concentration after 6 to 7 days; type: functional
Heliothis virescens = assay: Antilepidopteran activity against tobacco budworm eggs assessed as minimum emergent larvicide concentration after 6 to 7 days; type: functional

Row | Structure (SMILES) | Activity (Spodoptera exigua) [ppm] | Activity (Heliothis virescens) [ppm]
1 | CC[C@H]1CCC[C@H](O[C@H]2CC[C@H](N(C)C)[C@@H](C)O2)[C@@H](C)C(=O)C2=C[C@@H]3[C@@H](C=C[C@@H]4C[C@@H](O[C@@H]5O[C@@H](C)[C@H](OC)[C@@H](OC)[C@H]5OC)C[C@@H]34)[C@@H]2CC(=O)O1 [SPINOSYN A] | 3 | 0.4
2 | C[C@@H]1C(=O)C[C@@H](O)CC/C=C/C=C\CC[C@H](C)OC(=O)[C@@H]2O[B-]34O[C@@H](C(=O)O[C@@H](C)CC/C=C\C=C\CC[C@H](O)CC(=O)[C@@H](C)[C@@H]5CC[C@](C)(O)[C@]2(O5)O3)[C@@]2(O[C@H]1CC[C@]2(C)O)O4 [TARTROLON C] | 125 | 125
